In patent US11655235B2, “Pyrrolidine and piperidine compounds” (YUHAN CORPORATION, priority 2019, dated 2023):

Legend:
Type in all cases: biochemical
[1] = target: T1, recombinant human DPP8 (Homo sapiens, UniProt Q6V1X1); experiment: DPP8 inhibition, fluorogenic substrate Z-Ala-Pro-AMC; conditions: recombinant human DPP8
T1 construct: purchased PBS Bioscience
In short: (§1)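 Enzyme per reaction: 50 ng DPP9, 20 ng DPP8, 10 ng each DPP7 and PREP. Compounds were serially diluted (8 points, up to 0.5% DMSO) and incubated at 25 °C.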

[2] = target: T2, recombinant human DPP7 (Homo sapiens, UniProt Q9UHL4); experiment: DPP7 inhibition, fluorogenic substrate Lys-Pro-AMC; conditions: recombinant human DPP7
T2 construct: purchased R&D Systems
In short: as §1

[3] = target: DPP4 (Homo sapiens, UniProt P27487); experiment: DPP4 inhibition, fluorogenic substrate H-Gly-Pro-AMC; parameters: purchased R&D Systems; conditions: recombinant human DPP4
DPP4, sequence (P27487 whole entry): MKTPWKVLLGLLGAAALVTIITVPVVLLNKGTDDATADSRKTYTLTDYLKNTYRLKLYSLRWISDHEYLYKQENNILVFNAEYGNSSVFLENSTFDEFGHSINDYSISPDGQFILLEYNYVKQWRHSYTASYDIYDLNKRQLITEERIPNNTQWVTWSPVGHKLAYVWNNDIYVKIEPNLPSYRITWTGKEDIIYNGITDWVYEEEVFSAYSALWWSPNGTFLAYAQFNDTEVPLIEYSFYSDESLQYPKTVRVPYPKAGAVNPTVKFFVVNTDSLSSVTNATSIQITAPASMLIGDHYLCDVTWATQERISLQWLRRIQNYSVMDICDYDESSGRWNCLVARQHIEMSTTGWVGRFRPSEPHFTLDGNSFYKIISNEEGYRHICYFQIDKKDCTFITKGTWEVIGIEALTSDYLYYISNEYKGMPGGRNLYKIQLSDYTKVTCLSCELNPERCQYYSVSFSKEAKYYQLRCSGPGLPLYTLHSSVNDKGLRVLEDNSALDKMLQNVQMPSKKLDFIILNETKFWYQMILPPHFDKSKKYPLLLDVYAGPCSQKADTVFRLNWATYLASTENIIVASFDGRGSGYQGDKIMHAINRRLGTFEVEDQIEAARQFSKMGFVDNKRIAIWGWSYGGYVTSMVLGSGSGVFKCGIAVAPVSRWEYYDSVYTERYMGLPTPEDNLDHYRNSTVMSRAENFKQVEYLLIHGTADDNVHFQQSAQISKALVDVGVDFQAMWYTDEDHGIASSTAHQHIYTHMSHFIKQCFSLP

[4] = target: T3, recombinant human PREP (Homo sapiens, UniProt P48147); experiment: PREP inhibition, fluorogenic substrate Z-Gly-Pro-AMC; conditions: Inhibitory Activity (IC50, nM) PREP, recombinant human PREP
T3 construct: purchased R&D System
T3 sequence (P48147 1-710): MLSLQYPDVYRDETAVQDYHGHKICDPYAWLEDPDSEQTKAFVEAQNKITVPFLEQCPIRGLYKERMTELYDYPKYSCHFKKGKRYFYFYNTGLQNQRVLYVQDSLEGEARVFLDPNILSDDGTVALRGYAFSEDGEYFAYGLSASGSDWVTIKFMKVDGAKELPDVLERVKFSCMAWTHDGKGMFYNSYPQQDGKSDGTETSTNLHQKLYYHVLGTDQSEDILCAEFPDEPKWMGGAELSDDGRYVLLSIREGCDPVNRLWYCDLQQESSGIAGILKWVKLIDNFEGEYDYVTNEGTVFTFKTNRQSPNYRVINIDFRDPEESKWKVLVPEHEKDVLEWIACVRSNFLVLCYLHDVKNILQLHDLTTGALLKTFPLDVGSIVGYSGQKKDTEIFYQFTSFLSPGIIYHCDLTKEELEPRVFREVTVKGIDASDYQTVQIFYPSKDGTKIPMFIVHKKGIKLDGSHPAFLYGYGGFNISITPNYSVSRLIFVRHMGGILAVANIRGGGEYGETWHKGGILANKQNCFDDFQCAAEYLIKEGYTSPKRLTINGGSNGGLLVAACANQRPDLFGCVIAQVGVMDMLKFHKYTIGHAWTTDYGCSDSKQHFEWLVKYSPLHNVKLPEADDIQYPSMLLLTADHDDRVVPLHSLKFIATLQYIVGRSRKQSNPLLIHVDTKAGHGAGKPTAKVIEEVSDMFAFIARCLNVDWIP
In short: as §1

[5] = target: T4, recombinant human DPP9 (Homo sapiens, UniProt Q86TI2); experiment: DPP9 inhibition, fluorogenic substrate H-Gly-Pro-AMC; conditions: recombinant human DPP9
T4 construct: purchased R&D Systems
T4 sequence (Q86TI2 whole entry): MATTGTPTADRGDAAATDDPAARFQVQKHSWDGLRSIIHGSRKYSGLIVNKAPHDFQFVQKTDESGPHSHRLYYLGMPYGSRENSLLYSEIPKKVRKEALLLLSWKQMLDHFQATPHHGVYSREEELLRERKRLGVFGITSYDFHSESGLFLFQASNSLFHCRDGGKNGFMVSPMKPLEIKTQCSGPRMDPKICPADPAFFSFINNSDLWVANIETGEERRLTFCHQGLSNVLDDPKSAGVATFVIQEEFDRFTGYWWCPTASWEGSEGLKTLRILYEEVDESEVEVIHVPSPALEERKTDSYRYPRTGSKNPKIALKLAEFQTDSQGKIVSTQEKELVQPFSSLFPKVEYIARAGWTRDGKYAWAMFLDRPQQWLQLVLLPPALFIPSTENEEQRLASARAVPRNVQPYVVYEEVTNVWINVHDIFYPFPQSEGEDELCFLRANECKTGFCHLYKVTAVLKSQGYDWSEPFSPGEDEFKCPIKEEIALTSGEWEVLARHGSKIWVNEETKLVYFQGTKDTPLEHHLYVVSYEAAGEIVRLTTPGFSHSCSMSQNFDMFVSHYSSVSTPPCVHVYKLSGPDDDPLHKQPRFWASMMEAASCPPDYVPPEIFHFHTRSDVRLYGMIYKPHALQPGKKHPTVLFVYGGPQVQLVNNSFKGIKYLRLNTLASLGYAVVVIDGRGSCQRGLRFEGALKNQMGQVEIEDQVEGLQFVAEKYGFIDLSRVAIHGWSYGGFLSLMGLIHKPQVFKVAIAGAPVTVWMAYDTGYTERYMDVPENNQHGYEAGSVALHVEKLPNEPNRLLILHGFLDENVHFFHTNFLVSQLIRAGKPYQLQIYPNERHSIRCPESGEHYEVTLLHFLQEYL
In short: as §1

[6] = target: T5, Recombinant human FAP (Homo sapiens, UniProt Q12884); experiment: FAP FRET assay, FGF21-sequence FRET peptide substrate; conditions: FRET peptide with human FGF21 sequence, 6 μM, 37° C.
T5 construct: purchased R&D systems
T5 sequence (Q12884 1-760): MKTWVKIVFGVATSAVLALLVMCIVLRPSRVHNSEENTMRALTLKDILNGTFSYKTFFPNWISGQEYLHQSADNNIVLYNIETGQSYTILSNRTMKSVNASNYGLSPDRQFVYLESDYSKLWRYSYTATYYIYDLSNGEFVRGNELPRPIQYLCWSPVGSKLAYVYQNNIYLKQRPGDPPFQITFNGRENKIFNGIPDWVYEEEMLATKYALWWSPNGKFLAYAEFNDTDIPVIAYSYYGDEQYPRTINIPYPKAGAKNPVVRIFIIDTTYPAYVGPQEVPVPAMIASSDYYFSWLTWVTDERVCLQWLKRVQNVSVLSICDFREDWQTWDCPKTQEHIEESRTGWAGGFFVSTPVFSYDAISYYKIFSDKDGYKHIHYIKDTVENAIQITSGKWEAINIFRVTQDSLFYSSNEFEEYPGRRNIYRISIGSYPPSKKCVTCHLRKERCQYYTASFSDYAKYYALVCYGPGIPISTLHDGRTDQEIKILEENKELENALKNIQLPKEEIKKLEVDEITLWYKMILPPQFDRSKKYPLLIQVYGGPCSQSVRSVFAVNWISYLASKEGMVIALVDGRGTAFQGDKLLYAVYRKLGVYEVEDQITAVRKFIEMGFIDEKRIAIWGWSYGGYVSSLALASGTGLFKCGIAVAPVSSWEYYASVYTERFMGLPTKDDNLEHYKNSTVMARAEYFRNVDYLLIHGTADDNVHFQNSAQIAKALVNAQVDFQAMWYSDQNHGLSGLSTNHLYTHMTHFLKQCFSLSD
In short: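 Recombinant human FAP, 10 ng per reaction, in 50 mM HEPES pH 7.2 with 150 mM NaCl, 0.1 mg/ml BSA, 1 mM EDTA; HyLite Fluor 488/QXL 520 FRET peptide of human FGF21 sequence at 6 μM final, ≤0.1% DMSO, 37° C. IC50 from 8-point curves by four-parameter logistic fit.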

[7] = target: T5, Recombinant human FAP; experiment: FAP inhibition, fluorogenic substrate Z-Gly-Pro-AMC; conditions: recombinant human FAP, substrate Z-Gly-Pro-AMC
In short: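 Recombinant human FAP, 10 ng per reaction, in 50 mM Tris pH 7.5 with 1 M NaCl and 1 mg/ml BSA at 25° C; substrate Z-Gly-Pro-AMC, ≤0.1% DMSO. AMC fluorescence read at ex 380/em 460 nm; % signal-rate decrease vs no-inhibitor control, 8-point curves fitted to a four-parameter logistic for IC50.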

T1 sequence (Q6V1X1 whole entry): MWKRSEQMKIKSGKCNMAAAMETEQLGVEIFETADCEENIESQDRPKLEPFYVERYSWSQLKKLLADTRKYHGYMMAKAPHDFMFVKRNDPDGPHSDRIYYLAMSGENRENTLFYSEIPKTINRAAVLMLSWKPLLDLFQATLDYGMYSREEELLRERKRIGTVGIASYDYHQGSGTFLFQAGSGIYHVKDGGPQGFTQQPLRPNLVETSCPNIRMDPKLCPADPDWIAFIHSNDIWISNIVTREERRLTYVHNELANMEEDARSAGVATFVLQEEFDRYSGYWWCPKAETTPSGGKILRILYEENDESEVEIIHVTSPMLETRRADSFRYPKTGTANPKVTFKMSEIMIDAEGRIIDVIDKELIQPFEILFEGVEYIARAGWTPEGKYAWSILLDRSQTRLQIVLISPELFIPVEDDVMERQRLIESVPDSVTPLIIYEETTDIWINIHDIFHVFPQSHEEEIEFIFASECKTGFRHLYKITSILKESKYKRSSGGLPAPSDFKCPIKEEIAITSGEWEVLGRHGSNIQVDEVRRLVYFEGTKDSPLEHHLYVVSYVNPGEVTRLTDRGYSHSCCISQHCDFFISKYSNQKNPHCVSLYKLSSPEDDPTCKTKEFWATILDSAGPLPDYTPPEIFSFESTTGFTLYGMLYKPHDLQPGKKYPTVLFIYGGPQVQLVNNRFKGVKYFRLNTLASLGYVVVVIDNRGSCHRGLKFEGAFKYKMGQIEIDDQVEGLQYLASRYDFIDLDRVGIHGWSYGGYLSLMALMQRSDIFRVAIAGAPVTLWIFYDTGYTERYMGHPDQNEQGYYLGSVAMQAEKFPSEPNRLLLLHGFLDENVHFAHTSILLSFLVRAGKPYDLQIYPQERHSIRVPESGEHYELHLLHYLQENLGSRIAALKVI

IC50 [1]	IC50 [2]	IC50 [3]	IC50 [4]	IC50 [5]	IC50 [6]	IC50 [7]	Structure (SMILES)
9.85 µM	2.9 µM	1.85 µM	2540 nM	5.72 µM	0.0024 µM		Cc1cnc2cccc(N(C)[C@H]3CCN(CC(=O)N4C[C@@H](F)C[C@H]4C#N)C3)c2c1 [Example 155, (2S,4S)-4-fluoro-1-[2-[(3S)-3-[methyl-(3-methyl-5-quinolyl)amino]pyrrolidin-1-yl]acetyl]pyrrolidine-2-carbonitrile]
12 µM	5.06 µM	0.736 µM	1020 nM	6.79 µM	0.0027 µM		CN(c1cccc2ncc(F)cc12)[C@H]1CCN(CC(=O)N2C[C@@H](F)C[C@H]2C#N)C1 [Example 156, (2S,4S)-4-fluoro-1-(2-((S)-3-((3-fluoroquinolin-5-yl)(methyl)amino)pyrrolidin-1-yl)acetyl)pyrrolidine-2-carbonitrile]
8.62 µM	4.9 µM	2.09 µM	1720 nM	3.37 µM	0.004 µM		CN(c1ccc(F)c2ncccc12)[C@H]1CCN(CC(=O)N2C[C@@H](F)C[C@H]2C#N)C1 [Example 158, (2S,4S)-4-fluoro-1-(2-((S)-3-((8-fluoroquinolin-5-yl)(methyl)amino)pyrrolidin-1-yl)acetyl)pyrrolidine-2-carbonitrile]
7.59 µM	0.061 µM	1.86 µM	430 nM	3.7 µM	0.0067 µM		CN(c1ccc(C(F)(F)F)c2ncccc12)[C@H]1CCN(CC(=O)N2C[C@@H](F)C[C@H]2C#N)C1 [Example 159, (2S,4S)-4-fluoro-1-[2-[(3S)-3-[methyl-[8-(trifluoromethyl)-5-quinolyl]amino]pyrrolidin-1-yl]acetyl]pyrrolidine-2-carbonitrile]
3.6 µM	2.27 µM	1.04 µM			0.0024 µM	0.0013 µM	N#C[C@@H]1C[C@H](F)CN1C(=O)CN1CC[C@H](Nc2ccc(F)c3ncccc23)C1 [Example 264, (2S,4S)-4-fluoro-1-[2-[(3S)-3-[(8-fluoro-5-quinolyl)amino]pyrrolidin-1-yl]acetyl]pyrrolidine-2-carbonitrile]
9.92 µM	3.15 µM	> 10 µM	10600 nM	29.4 µM		0.0025 µM	N#C[C@@H]1C[C@H](F)CN1C(=O)CN1CCC(Oc2ccnc3ccc(C(F)(F)F)cc23)CC1 [Example 411, (2S,4S)-4-fluoro-1-[2-[4-[[6-(trifluoromethyl)-4-quinolyl]oxy]-1-piperidyl]acetyl]pyrrolidine-2-carbonitrile]
12 µM	10.7 µM	> 10 µM	1280 nM	69.8 µM		0.0059 µM	N#C[C@@H]1C[C@H](F)CN1C(=O)CN1CCC(Oc2cc(C(F)(F)F)nc3ccccc23)CC1 [Example 412, (2S,4S)-4-fluoro-1-[2-[4-[[2-(trifluoromethyl)-4-quinolyl]oxy]-1-piperidyl]acetyl]pyrrolidine-2-carbonitrile]
18.2 µM	> 100 µM	> 10 µM	26500 nM	> 100 µM		0.003 µM	N#C[C@@H]1C[C@H](F)CN1C(=O)CN1CCC(Oc2cc(C(F)(F)F)nc3ccc(F)cc23)CC1 [Example 413, (2S,4S)-4-fluoro-1-[2-[4-[[6-fluoro-2-(trifluoromethyl)-4-quinolyl]oxy]-1-piperidyl]acetyl]pyrrolidine-2-carbonitrile]
44 µM	8.74 µM	> 10 µM	57500 nM	> 100 µM		0.0043 µM	COc1ccc2nc(C(F)(F)F)cc(OC3CCN(CC(=O)N4C[C@@H](F)C[C@H]4C#N)CC3)c2c1 [Example 414, (2S,4S)-4-fluoro-1-[2-[4-[[6-methoxy-2-(trifluoromethyl)-4-quinolyl]oxy]-1-piperidyl]acetyl]pyrrolidine-2-carbonitrile]
16.5 µM	13.5 µM	> 10 µM	1410 nM	39.4 µM		0.0064 µM	COc1cccc2c(OC3CCN(CC(=O)N4C[C@@H](F)C[C@H]4C#N)CC3)cc(C(F)(F)F)nc12 [Example 415, (2S,4S)-4-fluoro-1-[2-[4-[[8-methoxy-2-(trifluoromethyl)-4-quinolyl]oxy]-1-piperidyl]acetyl]pyrrolidine-2-carbonitrile]
9.39 µM	2.02 µM	> 10 µM	1100 nM	23 µM		0.0081 µM	N#C[C@@H]1C[C@H](F)CN1C(=O)CN1CCC(Oc2nccc3ccccc23)CC1 [Example 419, (2S,4S)-4-fluoro-1-[2-[4-(1-isoquinolyloxy)-1-piperidyl]acetyl]pyrrolidine-2-carbonitrile]
8.59 µM	2.08 µM	> 10 µM	1740 nM	22.1 µM		0.007 µM	N#C[C@@H]1C[C@H](F)CN1C(=O)CN1CCC(Oc2cncc3ccccc23)CC1 [Example 420, (2S,4S)-4-fluoro-1-[2-[4-(4-isoquinolyloxy)-1-piperidyl]acetyl]pyrrolidine-2-carbonitrile]
1.58 µM	> 100 µM	7.53 µM	2610 nM	4.16 µM		0.0025 µM	N#C[C@@H]1C[C@H](F)CN1C(=O)CN1CCC(Oc2cccc3cnccc23)CC1 [Example 421, (2S,4S)-4-fluoro-1-[2-[4-(5-isoquinolyloxy)-1-piperidyl]acetyl]pyrrolidine-2-carbonitrile]
6.42 µM	1.22 µM	> 10 µM	1410 nM	10.3 µM		0.0114 µM	N#C[C@@H]1C[C@H](F)CN1C(=O)CN1CCC(Oc2ccc3cnccc3c2)CC1 [Example 422, (2S,4S)-4-fluoro-1-[2-[4-(6-isoquinolyloxy)-1-piperidyl]acetyl]pyrrolidine-2-carbonitrile]
3.46 µM	2.05 µM	8.99 µM	990 nM	9.33 µM		0.0093 µM	N#C[C@@H]1C[C@H](F)CN1C(=O)CN1CCC(Oc2ccc3ccncc3c2)CC1 [Example 423, (2S,4S)-4-fluoro-1-[2-[4-(7-isoquinolyloxy)-1-piperidyl]acetyl]pyrrolidine-2-carbonitrile]
